From patent US20230391774A1, “Novel Compounds” (AC Immune SA, priority 2020, published 2023)

Each compound was assayed against T1, flTau aggregates (longest isoform of human Tau, 2N4R) (Homo sapiens, UniProt P10636) (assay: Full-length Tau (flTau) disaggregation assay by Thioflavin T (ThT)). Settings: ThT fluorescence; 60 nM flTau aggregates, 30 minutes at RT; read-out: flTau disaggregation EC50.
T1 construct: 35 μM of recombinant full-length (fl) Tau in phosphate-buffered saline (PBS) were aggregated; purchased Biotechne; host or cells: bacteria
Assay type: biochemical
Protocol: Full-Length Tau (flTau) Disaggregation Assay by Thioflavin T (ThT)
The longest isoform of human Tau (2N4R; 441 amino acids) was expressed in bacteria and purified (Biotechne). For the Tau disaggregation assay by ThT, 35 μM of recombinant full-length (fl) Tau in phosphate-buffered saline (PBS) were aggregated for 72 hours at 37° C. in presence of 35 μM of heparin (Sigma-Aldrich) and 10 mM of […] (Sigma-Aldrich) under shaking at 1000 RPM. Compound 1 was dissolved in anhydrous dimethyl sulfoxide (DMSO, Sigma-Aldrich) to reach a concentration of 2.5 mM. flTau aggregates and serial dilutions of compound 1 were mixed together in PBS (volume 50 μL) to a final concentration of 60 nM of flTau aggregates and from 20 to 0.0012 μM of Compound 1. The mixture was incubated for 30 minutes at room temperature (RT), then 40 μL of this mixture were transferred into a black 384-well plate assay (Perkin-Elmer) and mixed with 10 μL of 20 μM ThT in 250 mM glycine (both from Sigma-Aldrich) in PBS. Fluorescence (relative fluorescence units; RFU) was measured in monoplicate or duplicate on a Tecan reader (excitation: 440 nm; emission: 485 nm). Percentage of flTau disaggregation was then calculated and the half maximal effective concentration (EC50) was determined using GraphPad Prism version 8 (GraphPad Software) assuming a one-binding site fitting model, see Table 3 and Table 4.

T1 sequence (P10636 1-441 isoform P10636-8): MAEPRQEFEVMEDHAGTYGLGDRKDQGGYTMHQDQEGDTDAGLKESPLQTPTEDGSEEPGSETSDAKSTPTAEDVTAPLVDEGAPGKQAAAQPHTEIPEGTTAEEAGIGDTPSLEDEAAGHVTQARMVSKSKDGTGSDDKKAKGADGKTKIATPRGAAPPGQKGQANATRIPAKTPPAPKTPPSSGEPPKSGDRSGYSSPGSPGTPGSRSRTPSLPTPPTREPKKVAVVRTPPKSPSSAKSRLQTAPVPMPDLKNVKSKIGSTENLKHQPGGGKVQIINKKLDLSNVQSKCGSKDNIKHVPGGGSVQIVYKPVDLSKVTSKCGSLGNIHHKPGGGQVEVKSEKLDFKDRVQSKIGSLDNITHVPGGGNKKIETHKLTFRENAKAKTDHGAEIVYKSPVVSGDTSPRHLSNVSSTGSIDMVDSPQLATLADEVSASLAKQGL

| EC50 | Structure (SMILES) |
| --- | --- |
| 10000 to 50000 nM | c1ccc2c(C3CCN(c4cnc5oc(N6CCOCC6)nc5c4)CC3)n[nH]c2c1 [Example 49, 6-(4-(1H-indazol-3-yl)piperidin-1-yl)-2-morpholinooxazolo[5,4-b]pyridine] |
| 1000 to 10000 nM | Fc1ccc2[nH]nc(C3CCN(c4ccc5oc(N6CCOCC6)nc5c4)CC3)c2c1 [Example 61, 5-(4-(5-fluoro-1H-indazol-3-yl)piperidin-1-yl)-2-morpholinobenzo[d]oxazole] |
| 1000 to 10000 nM | Cn1cc(C2CCN(c3ccc4oc(N5CCOCC5)nc4c3)CC2)c2ccccc21 [Example 68, 5-(4-(1-methyl-1H-indol-3-yl)piperidin-1-yl)-2-morpholinobenzo[d]oxazole] |
| 10000 to 50000 nM | c1ccc2c(C3CCN(c4cc5oc(N6CCOCC6)nc5cn4)CC3)n[nH]c2c1 [Example 72, 6-(4-(1H-indazol-3-yl)piperidin-1-yl)-2-morpholinooxazolo[4,5-c]pyridine] |
| 1000 to 10000 nM | Fc1cccc2[nH]nc(C3CCN(c4ccc5oc(N6CCOCC6)nc5c4)CC3)c12 [Example 73, 5-(4-(4-fluoro-1H-indazol-3-yl)piperidin-1-yl)-2-morpholinobenzo[d]oxazole] |
| 1000 to 10000 nM | Fc1ccc2c(C3CCN(c4ccc5oc(N6CCOCC6)nc5c4)CC3)n[nH]c2c1 [Example 74, 5-(4-(6-fluoro-1H-indazol-3-yl)piperidin-1-yl)-2-morpholinobenzo[d]oxazole] |
| < 1000 nM | Fc1cccc2c(C3CCN(c4ccc5oc(N6CCOCC6)nc5c4)CC3)n[nH]c12 [Example 75, 5-(4-(7-fluoro-1H-indazol-3-yl)piperidin-1-yl)-2-morpholinobenzo[d]oxazole] |
| 1000 to 10000 nM | Cc1ccc2[nH]nc(C3CCN(c4ccc5oc(N6CCOCC6)nc5c4)CC3)c2c1 [Example 76, 5-(4-(5-methyl-1H-indazol-3-yl)piperidin-1-yl)-2-morpholinobenzo[d]oxazole] |
| 1000 to 10000 nM | Cc1ccc2c(C3CCN(c4ccc5oc(N6CCOCC6)nc5c4)CC3)n[nH]c2c1 [Example 77, 5-(4-(6-methyl-1H-indazol-3-yl)piperidin-1-yl)-2-morpholinobenzo[d]oxazole] |
| 1000 to 10000 nM | Cc1cccc2c(C3CCN(c4ccc5oc(N6CCOCC6)nc5c4)CC3)n[nH]c12 [Example 78, 5-(4-(7-methyl-1H-indazol-3-yl)piperidin-1-yl)-2-morpholinobenzo[d]oxazole] |
| < 1000 nM | c1ccc2c(N3CCN(c4ccc5oc(N6CCOCC6)nc5c4)CC3)n[nH]c2c1 [Example 79, 5-(4-(1H-indazol-3-yl)piperazin-1-yl)-2-morpholinobenzo[d]oxazole] |
| 1000 to 10000 nM | COC1CCN(c2nc3cc(N4CCC(c5n[nH]c6ccccc56)CC4)ccc3o2)CC1 [Example 80, 5-(4-(1H-indazol-3-yl)piperidin-1-yl)-2-(4-methoxypiperidin-1-yl)benzo[d]oxazole] |

Continued, compound first:

| Structure (SMILES) | EC50 |
| --- | --- |
| Cn1cc(-c2ccc3oc(N4CCOCC4)nc3c2)c2cc(F)cnc21 [Example 3, 5-(5-fluoro-1-methyl-1H-pyrrolo[2,3-b]pyridin-3-yl)-2-morpholinobenzo[d]oxazole] | 1000 to 10000 nM |
| c1ccc2c(-c3ccc4oc(N5CCOCC5)nc4c3)n[nH]c2c1 [Example 4, 5-(1H-indazol-3-yl)-2-morpholinobenzo[d]oxazole] | < 1000 nM |
| C(#Cc1n[nH]c2ccccc12)c1ccc2oc(N3CCOCC3)nc2c1 [Example 5, 5-((1H-indazol-3-yl)ethynyl)-2-morpholinobenzo[d]oxazole] | < 1000 nM |
| C(#Cc1c[nH]c2ccccc12)c1ccc2oc(N3CCOCC3)nc2c1 [Example 6, 5-((1H-indol-3-yl)ethynyl)-2-morpholinobenzo[d]oxazole] | 1000 to 10000 nM |
| c1ccc2c(-c3cnn(-c4ccc5oc(N6CCOCC6)nc5c4)c3)n[nH]c2c1 [Example 8, 5-(4-(1H-indazol-3-yl)-1H-pyrazol-1-yl)-2-morpholinobenzo[d]oxazole] | < 1000 nM |
| c1ccc2c(-c3ccn(-c4ccc5oc(N6CCOCC6)nc5c4)n3)n[nH]c2c1 [Example 10, 5-(3-(1H-indazol-3-yl)-1H-pyrazol-1-yl)-2-morpholinobenzo[d]oxazole] | < 1000 nM |
| c1ccc2c(-c3ccn(-c4ccc5oc(N6CCOCC6)nc5c4)n3)c[nH]c2c1 [Example 11, 5-(3-(1H-indol-3-yl)-1H-pyrazol-1-yl)-2-morpholinobenzo[d]oxazole] | < 1000 nM |
| O=C(Nc1ccc2oc(N3CCOCC3)nc2c1)c1c[nH]c2ccccc12 [Example 12, N-(2-morpholinobenzo[d]oxazol-5-yl)-1H-indole-3-carboxamide] | < 1000 nM |
| O=C(Nc1ccc2oc(N3CCOCC3)nc2c1)c1c[nH]c2ncccc12 [Example 13, N-(2-morpholinobenzo[d]oxazol-5-yl)-1H-pyrrolo[2,3-b]pyridine-3-carboxamide] | < 1000 nM |
| O=C(Nc1ccc2oc(N3CCOCC3)nc2c1)c1n[nH]c2ccccc12 [Example 18, N-(2-morpholinobenzo[d]oxazol-5-yl)-1H-indazole-3-carboxamide] | 1000 to 10000 nM |
| Cn1cc(C2CCN(c3ccc4oc(N5CCOCC5)nc4c3)CC2)c2cccnc21 [Example 21, 5-(4-(1-methyl-1H-pyrrolo[2,3-b]pyridin-3-yl)piperidin-1-yl)-2-morpholinobenzo[d]oxazole] | 1000 to 10000 nM |
| Fc1cnc2[nH]cc(C3CCN(c4ccc5oc(N6CCOCC6)nc5c4)CC3)c2c1 [Example 22, 5-(4-(5-fluoro-1H-pyrrolo[2,3-b]pyridin-3-yl)piperidin-1-yl)-2-morpholinobenzo[d]oxazole] | 1000 to 10000 nM |
| c1ccn2c(C3CCN(c4ccc5oc(N6CCOCC6)nc5c4)CC3)cnc2c1 [Example 25, 5-(4-(imidazo[1,2-a]pyridin-3-yl)piperidin-1-yl)-2-morpholinobenzo[d]oxazole] | 1000 to 10000 nM |
| c1ccc2c(C3CCN(c4cnc5nc(N6CCOCC6)sc5c4)CC3)c[nH]c2c1 [Example 28, 4-(6-(4-(1H-indol-3-yl)piperidin-1-yl)thiazolo[4,5-b]pyridin-2-yl)morpholine] | < 1000 nM |
| Fc1cnc2c(C3CCN(c4ccc5nc(N6CCOCC6)sc5c4)CC3)c[nH]c2c1 [Example 30, 4-(6-(4-(6-fluoro-1H-pyrrolo[3,2-b]pyridin-3-yl)piperidin-1-yl)benzo[d]thiazol-2-yl)morpholine] | < 1000 nM |
| Cn1nc(C2CCN(c3ccc4oc(N5CCOCC5)nc4c3)CC2)c2cccnc21 [Example 31, 5-(4-(1-methyl-1H-pyrazolo[3,4-b]pyridin-3-yl)piperidin-1-yl)-2-morpholinobenzo[d]oxazole] | 1000 to 10000 nM |
| c1ccc2c(C3CCN(c4ccc5oc(N6CCOCC6)nc5c4)C3)c[nH]c2c1 (centres unmarked) [Example 39, 5-(3-(1H-indol-3-yl)pyrrolidin-1-yl)-2-morpholinobenzo[d]oxazole] | 1000 to 10000 nM |
| c1ccc2c(C3CCN(c4ccc5oc(N6CCOCC6)nc5c4)C3)c[nH]c2c1 (centres unmarked) [Example 40, 5-(3-(1H-indol-3-yl)pyrrolidin-1-yl)-2-morpholinobenzo[d]oxazole] | < 1000 nM |
| c1ccc2c(C3CCN(c4cc5nc(N6CCOCC6)oc5cn4)CC3)n[nH]c2c1 [Example 45, 6-(4-(1H-indazol-3-yl)piperidin-1-yl)-2-morpholinooxazolo[5,4-c]pyridine] | 1000 to 10000 nM |
| c1ccc2c(C3CCN(c4cc5nc(N6CCOCC6)oc5cn4)CC3)c[nH]c2c1 [Example 48, 6-(4-(1H-indol-3-yl)piperidin-1-yl)-2-morpholinooxazolo[5,4-c]pyridine] | 1000 to 10000 nM |
